US11718589B2, “Compositions and methods of modulating short-chain dehydrogenase” (CASE WESTERN RESERVE UNIVERSITY, priority 2017, dated 2023)

The compounds below were run against recombinant 15-PGDH (Homo sapiens (Human), UniProt P15428) (assay: Enzyme inhibition of recombinant 15-PGDH, in vitro assay). Conditions: recombinant human 15-PGDH; read-out: Enzyme inhibition (IC50).
Type: biochemical

Sequence of recombinant 15-PGDH (P15428 whole entry): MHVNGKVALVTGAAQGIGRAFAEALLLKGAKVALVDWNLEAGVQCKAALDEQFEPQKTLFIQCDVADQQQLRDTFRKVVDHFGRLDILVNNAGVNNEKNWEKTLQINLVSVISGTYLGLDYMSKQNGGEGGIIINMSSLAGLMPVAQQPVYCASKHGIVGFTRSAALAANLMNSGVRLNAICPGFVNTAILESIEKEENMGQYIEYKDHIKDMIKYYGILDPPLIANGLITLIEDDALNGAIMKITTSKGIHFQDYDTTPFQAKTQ

SMILES	IC50 [nM]
CCCC[S+]([O-])c1cc2nc(-c3ccc(OC)cc3)cc(-c3c(C)nn(C)c3C)n2n1 (stereo not drawn) [74a]	20 to 100
COc1ccc(-c2cc(C(F)(F)F)n3nc(C(=O)N4CCC(CO)CC4)cc3n2)cc1 [16a]	< 100
CCCC[S+]([O-])c1cc2nc(-c3ccc(OC)cc3)cc(-c3cccnc3)n2n1 (stereo not drawn) [51a]	500 to 2500
Cn1nccc1-c1nc(-c2ccccc2)nc2cc(C(=O)N3CCCCC3)ccc12 [90b]	~4
Cc1cc(-c2nc3cc(C(=O)N4CCCCC4)ccc3nc2-c2ccccc2)ccn1 [38b]	20
O=C(c1ccc2ncc(-c3ccc(F)cc3)nc2c1)N1CCCCC1 [42b]	4 to 20
COc1ccc(-c2cc(C(F)(F)F)n3nc(C(=O)N4CCC(C)CC4)cc3n2)cc1 [18a]	30.6
Nc1ccc(-c2cnc3ccc(C(=O)N4CCCCC4)cc3n2)cc1 [63b]	4 to 20
O=C(c1cc2nc(-c3cncnc3)cc(C(F)(F)F)n2n1)N1CCCCC1 [37a]	> 2500
COc1ccc(-c2cc(N(C)C)n3nc(C(=O)N4CCCCC4)cc3n2)cc1 [32a]	33.4
CC1CCCN(C(=O)c2cc3nc(-c4ccc(Cl)cc4)cc(C(F)(F)F)n3n2)C1 (stereo not drawn) [75a]	20 to 100
COc1ccc(-c2cc(C)n3nc(C(=O)N4CCCCC4)cc3n2)cc1 [35a]	100
COc1ccc(-c2cc(-c3ccncc3Cl)n3nc(C(=O)N4CCCCC4)cc3n2)cc1 [26a]	~500
O=C(c1cc2nc(-c3cccs3)cc(C(F)(F)F)n2n1)N1CCCCC1 [42a]	> 2500
C=CCNC(=O)c1ccc2nc(-c3ccccc3)c(-c3ccccc3)nc2c1 [19b]	> 2500
CCCC[S+]([O-])c1nc2nc(-c3nccs3)cc(C(F)(F)F)n2n1 (stereo not drawn) [50a]	> 2500
O=C(c1cc2nc(-c3ccc(O)cc3)cc(C(F)(F)F)n2n1)N1CCCCC1 [68a]	> 2500
CCCC[S+]([O-])c1cc2nc(-c3ccc(OC)cc3)cc(-c3cnc(C)n3C)n2n1 (stereo not drawn) [70a]	100 to 500
COc1ccc(-c2cc(C(F)(F)F)n3nc(C(=O)N4CCCC4)cc3n2)cc1 [9a]	> 2500
CCCC[S+]([O-])c1nc2nc(-c3ccc(OC)cc3)cc(-c3ccccc3)n2n1 (stereo not drawn) [55a]	> 2500
COc1ccc(-c2cc(C(F)(F)F)n3nc(C(=O)N4CCCC(C)(C)C4)cc3n2)cc1 [63a]	4 to 20

SMILES	IC50 [nM]
COc1ccc(-c2cc(C(F)(F)F)n3nc(C(=O)N4CCOCC4)cc3n2)cc1 [10a]	100 to 500
CCCCSc1ccc2nc(-c3ccccc3)c(-c3ccccc3)nc2c1 [2b]	> 2500
COc1ccc(-c2cc(C(F)(F)F)n3nc(C(=O)N4CCCCCC4)cc3n2)cc1 [11a]	18.9
COc1ccc(-c2cc(C(F)(F)F)n3nc(C(=O)N4CCCCC4)cc3n2)cc1 [1a]	24
O=C(c1cc2nc(-c3nccs3)cc(C(F)(F)F)n2n1)N1CCCCC1 [45a]	14
COc1ccc(-c2cc(C(F)(F)F)n3nc(C(=O)N4CCC(F)CC4)cc3n2)cc1 [15a]	42
COc1ccc(-c2cc(C(F)(F)F)n3nc(C(=O)N4CCC(F)(F)CC4)cc3n2)cc1 [59a]	100 to 500
CNC(=O)c1ccc(-c2cnc3ccc(C(=O)N4CCCCC4)cc3n2)cc1 [80b]	4
COc1ccc(-c2cc(C(F)(F)F)n3nc(C(=O)N4CCCCC4CO)cc3n2)cc1 (stereo not drawn) [17a]	< 100
O=C(O)c1ccc2nc(-c3ccccc3)c(-c3ccccc3)nc2c1 [21b]	> 2500
COc1ccc(-c2cc(C(F)(F)F)n3nc(C(=O)N4CCCC(C)C4)cc3n2)cc1 (stereo not drawn) [19a]	14.6
CCCCS(=O)(=O)c1ccc2nc(-c3ccccc3)c(-c3ccccc3)nc2c1 [4b]	> 2500
O=C(c1cc2nc(-c3ccc(Cl)cc3)cc(C(F)(F)F)n2n1)N1CCCCC1 [56a]	> 2500
COc1ccc(-c2cc(C(F)(F)F)n3nc(C(=O)N4CCC(OC)CC4)cc3n2)cc1 [21a]	100 to 500
O=C(c1ccc2nc(-c3ccccc3)[nH]c2c1)N1CCCCC1 [32b]	100 to 500
COc1ccc(-c2cc(-c3cccn3C)n3nc(C(=O)N4CCCCC4)cc3n2)cc1 [71a]	20 to 100
COc1ccc(-c2cc(-c3ccnc(Cl)c3)n3nc(C(=O)N4CCCCC4)cc3n2)cc1 [25a]	> 100
COc1ccc(-c2cc(C(F)(F)F)n3nc(C(=O)N4CCCC(=O)C4)cc3n2)cc1 [62a]	500 to 2500
COc1ccc(-c2cc(C(F)(F)F)n3nc(C(=O)N4CC(C)CC(C)C4)cc3n2)cc1 (stereo not drawn) [57a]	100
O=C(c1ccc2nc(-c3ccccc3)c(-c3cccnc3)nc2c1)N1CCCCC1 [33b]	20
CCCC[S+]([O-])c1cc2nc(-c3ccc(OC)cc3)cc(-c3cnn(C)c3)n2n1 (stereo not drawn) [53a]	500 to 2500

SMILES	IC50 [nM]
Nc1nc2ccc(-c3cnc4ccc(C(=O)N5CCCCC5)cc4n3)cc2s1 [95b]	< 4
Cn1cc(-c2cc(C(F)(F)F)n3nc(C(=O)N4CCCCC4)cc3n2)cn1 [38a]	> 2500
O=C(c1ccc2nc(-c3ccccc3)c(-c3cncnc3)nc2c1)N1CCCCC1 [36b]	20 to 100
CCCC[S+]([O-])c1nc2nc(-c3ccc(OC)cc3)cc(C(F)(F)F)n2n1 (stereo not drawn) [49a]	> 2500
CCCCSc1cc2nc(-c3ccc(OC)cc3)cc(C(F)(F)F)n2n1 [2a, 2-(butylthio)-5-(4-methoxyphenyl)-7-(trifluoromethyl)pyrazolo[1,5-a]pyrimidine]	> 2500
COc1ccc(-c2cc(-c3cncnc3)n3nc(C(=O)N4CCCCC4)cc3n2)cc1 [28a]	100 to 500
COc1ccc(-c2cc(-c3ccccc3)n3nc(C(=O)N4CCCCC4)cc3n2)cc1 [34a]	> 500
CCCC[S+]([O-])c1cc2nc(-c3ccc(OC)cc3)cc(-c3cn(C)nc3C)n2n1 (stereo not drawn) [73a]	500
COc1ccc(-c2cc(-c3ccccn3)n3nc(C(=O)N4CCCCC4)cc3n2)cc1 [24a]	20 to 100
O=C(c1cc2nc(-c3ccccc3C(F)(F)F)cc(C(F)(F)F)n2n1)N1CCCCC1 [43a]	> 2500
CCCC[S+]([O-])c1cc2nc(-c3nccs3)cc(C(F)(F)F)n2n1 (stereo not drawn) [48a]	20 to 100
O=C(c1ccc2ncc(-c3ccc4c(=O)[nH]cc(Cl)c4c3)nc2c1)N1CCCCC1 [92b]	< 4
O=C(c1cc2nc(-c3ccc(F)cc3)cc(C(F)(F)F)n2n1)N1CCCCC1 [36a]	30.7
COc1ccc(-c2cc(-c3ccncc3)n3nc(C(=O)N4CCCCC4)cc3n2)cc1 [22a]	~100
Cc1c(C(N)=O)[nH]c2ccc(-c3cnc4ccc(C(=O)N5CCCCC5)cc4n3)cc12 [93b]	< 4
COc1ccc(-c2cc(OC)n3nc(C(=O)N4CCCCC4)cc3n2)cc1 [33a]	20 to 100
O=C(NCCO)c1ccc2nc(-c3ccccc3)c(-c3ccccc3)nc2c1 [17b]	> 2500
CCCC[S+]([O-])c1cc2nc(-c3ccc(OC)cc3)cc(-c3cncnc3)n2n1 (stereo not drawn) [52a]	2500
CCOc1ccc(-c2cc(C(F)(F)F)n3nc(C(=O)N4CCCCC4)cc3n2)cc1 [69a]	500 to 2500

The compounds below were run on PGE2 in A549 cell culture (assay: Induction of PGE2 in A549 cell culture). Conditions: 0.1 μM compound, A549 cells.
Type: cell-based
Experimental: This Example provides data on two groups (Table 1 and Table 2) of structural analogues of identified 15-PGDH inhibitors. Data provided is the IC50 of each compound for inhibiting enzymatic activity of recombinant 15-PGDH in an in vitro assay. Recombinant 15-PGDH is human unless otherwise specified. Additionally, the example provides data for selected compounds on induction of PGE2 in A549 cell culture administered 2.5 μM or 0.1 μM of the selected compound.

SMILES	induction of PGE2 in A549 cell culture at 0.1 μM (fold)
CCCC[S+]([O-])c1cc2nc(-c3ccc(OC)cc3)cc(-c3ccccc3)n2n1 (stereo not drawn) [5a]	1.08
O=C(c1ccc2nc(-c3ccccc3)c(-c3ccccc3)nc2c1)N1CCCCC1 [1b]	1.11
CCCC[S+]([O-])c1cc2nc(-c3ccc(OC)cc3)cc(C(F)(F)F)n2n1 (stereo not drawn) [3a]	1.45
COc1ccc(-c2cc(C(F)(F)F)n3nc(C(=O)N4CCCCC4)cc3n2)cc1 [1a]	1.29

Same assay, conditions: 2.5 μM compound, A549 cells

SMILES	induction of PGE2 in A549 cell culture at 2.5 μM (fold)
CCCC[S+]([O-])c1cc2nc(-c3ccc(OC)cc3)cc(-c3ccccc3)n2n1 (stereo not drawn) [5a]	1.69
O=C(c1ccc2nc(-c3ccccc3)c(-c3ccccc3)nc2c1)N1CCCCC1 [1b]	1.87
CCCC[S+]([O-])c1cc2nc(-c3ccc(OC)cc3)cc(C(F)(F)F)n2n1 (stereo not drawn) [3a]	2.13
COc1ccc(-c2cc(C(F)(F)F)n3nc(C(=O)N4CCCCC4)cc3n2)cc1 [1a]	1.89
